Reference: paper PMC9120017, “Inhibition mechanism of the chloride channel TMEM16A by the pore blocker 1PBC” (Nature Communications, 2022)
Like-named read-outs stand apart in the source and are kept apart here.

Molecular target: T1, mouse TMEM16A mutant V511A (Mus musculus, UniProt Q8BHY3, V511A)
T1 construct: expressed in transfected cells; host or cells: HEK293T
T1 sequence (Q8BHY3 1-960 V511A): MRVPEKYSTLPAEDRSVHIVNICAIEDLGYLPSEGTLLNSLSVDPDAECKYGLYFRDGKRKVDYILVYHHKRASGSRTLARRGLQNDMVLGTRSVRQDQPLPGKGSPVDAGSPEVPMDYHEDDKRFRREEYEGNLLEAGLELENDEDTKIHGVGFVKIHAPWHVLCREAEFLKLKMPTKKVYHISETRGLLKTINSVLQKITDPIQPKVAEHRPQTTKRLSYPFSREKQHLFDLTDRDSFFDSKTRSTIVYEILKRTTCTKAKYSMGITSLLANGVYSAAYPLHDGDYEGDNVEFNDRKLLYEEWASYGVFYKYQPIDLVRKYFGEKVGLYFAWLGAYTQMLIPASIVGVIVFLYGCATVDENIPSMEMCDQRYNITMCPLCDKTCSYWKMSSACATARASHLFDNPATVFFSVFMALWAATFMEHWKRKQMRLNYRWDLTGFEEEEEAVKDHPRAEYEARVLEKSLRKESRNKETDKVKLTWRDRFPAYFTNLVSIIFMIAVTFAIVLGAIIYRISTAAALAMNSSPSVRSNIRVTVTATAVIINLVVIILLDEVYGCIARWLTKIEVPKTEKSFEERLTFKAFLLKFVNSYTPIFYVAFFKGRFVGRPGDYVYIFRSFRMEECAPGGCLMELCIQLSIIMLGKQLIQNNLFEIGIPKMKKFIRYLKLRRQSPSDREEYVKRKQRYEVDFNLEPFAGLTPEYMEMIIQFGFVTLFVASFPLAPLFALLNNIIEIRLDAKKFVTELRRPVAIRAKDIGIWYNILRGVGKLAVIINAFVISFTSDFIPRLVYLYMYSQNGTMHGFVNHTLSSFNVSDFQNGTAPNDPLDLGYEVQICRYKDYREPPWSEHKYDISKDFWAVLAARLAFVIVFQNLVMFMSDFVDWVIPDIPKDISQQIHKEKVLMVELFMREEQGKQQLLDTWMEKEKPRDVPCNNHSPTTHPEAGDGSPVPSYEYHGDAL
Experiment: Inside-out patch recording of 1PBC block, mutant V511A
Assay type: cell-based
Conditions: for remaining activity at 3 µM: 1PBC 3; for remaining activity at 3 µM / remaining activity at 10 µM / remaining activity at 30 µM / remaining activity at 100 µM: read-out: fraction of unblocked current; for remaining activity at 10 µM: 1PBC 10; for remaining activity at 30 µM: 1PBC 30; for remaining activity at 100 µM: 1PBC 100
Method: HEK293T cells (ATCC CRL-1573) were maintained in Dulbecco’s modified Eagle’s medium (DMEM; Sigma-Aldrich) supplemented with 10 U ml^−1 penicillin, 0.1 mg ml^−1 streptomycin (Sigma-Aldrich), 2 mM L-glutamine (Sigma-Aldrich), and 10% FBS (Sigma-Aldrich) in a humidified atmosphere containing 5% CO2 at 37 °C. HEK293S GnTI^− cells (ATCC CRL-3022) were maintained in HyClone HyCell TransFx-H medium (GE Healthcare) supplemented with 10 U ml^−1 penicillin, 0.1 mg ml^−1 streptomycin, 4 mM L-glutamine, 0.15% poloxamer 188 (Sigma-Aldrich), and 1% FBS in an atmosphere containing 5% CO2 at 185 rpm at 37 °C. The ac splice variant of mouse TMEM16A (UniProt ID: Q8BHY3), mouse TMEM16B (UniProt ID: Q8CFW1), or mouse TMEM16F (UniProt ID: Q6P9J9) bearing a 3C cleavage site, a Venus YFP, a Myc tag, and a Streptavidin-binding peptide (SBP) downstream of the open reading frame in a modified pcDNA3.1 vector (Invitrogen) were used as described previously[21],[31]. Mutations were introduced using a modified QuikChange method[58] and were verified by sequencing.
HEK293T cells were transfected with 3–4 μg DNA per 6 cm Petri dish using the calcium phosphate co-precipitation method and were used within 24–96 h after transfection. Recordings were performed on inside-out patches excised from HEK293T cells expressing the construct of interest. Patch pipettes were pulled from borosilicate glass capillaries (O.D. 1.5 mm, I.D. 0.86 mm, Sutter Instrument) and were fire-polished with a microforge (Narishige) before use. Pipette resistance was typically 3–8 MΩ when filled with the recording solutions detailed below. Seal resistance was typically 4 GΩ or higher. Voltage-clamp recordings were made using Axopatch 200B, Digidata 1550, and Clampex 10.7 (Molecular Devices). Analog signals were filtered with the in-built 4-pole Bessel filter at 10 kHz and were digitized at 20 kHz. Solution exchange was achieved using a gravity-fed system through a theta glass pipette mounted on an ultra-fast piezo-driven stepper (Siskiyou). […] All recordings were performed at 20 °C.
A symmetrical ionic condition was used throughout. Stock solution with Ca^2+-EGTA contained 150 mM NaCl, 5.99 mM Ca(OH)2, 5 mM EGTA, and 10 mM HEPES at pH 7.40. Stock solution with EGTA contained 150 mM NaCl, 5 mM EGTA, and 10 mM HEPES at pH 7.40. Free Ca^2+ concentrations were adjusted by mixing the stock solutions at the required ratios calculated using the WEBMAXC program (http://web.stanford.edu/~cpatton/webmaxcS.htm). Patch pipettes were filled with the stock solution with Ca^2+-EGTA, which has a free Ca^2+ concentration of 1 mM. 1PBC (ChemBridge) stock was reconstituted in anhydrous DMSO (Sigma-Aldrich) at 100 mM and stored at −20 °C. Working solutions with 1PBC were prepared by serial dilution. Unless otherwise stated, experiments were performed at a saturating Ca^2+ concentration as shown in Supplementary Table 1 and the primary data were corrected for current rundown as described previously[21],[25].
Concentration-response relations, obtained from the ratio of the I-V plots before and after the application of the blocker, were fitted to the Hill equation,1 I/Imax=1/1+IC50/[blocker]^h where I/Imax is the normalized current responses, IC50 defines the concentration at which inhibition is at its half-maximum, and h is the Hill coefficient.

N#Cc1c(C(F)(F)F)cc(O)n2c1nc1ccccc12 [1PBC]
IC50 (0 mV, 2 µM Ca2+): 20.8 µM | remaining activity at 3 µM (0 mV): 87.8% | remaining activity at 3 µM (20 mV): 84.4% | remaining activity at 3 µM (40 mV): 80.2% | remaining activity at 3 µM (60 mV): 77.1% | remaining activity at 3 µM (80 mV): 73.1% | remaining activity at 3 µM (100 mV): 70.9% | remaining activity at 3 µM (120 mV): 69.6% | remaining activity at 3 µM (140 mV): 70.4% | remaining activity at 3 µM (-20 mV): 91.2% | remaining activity at 3 µM (-40 mV): 93% | remaining activity at 3 µM (-60 mV): 94.7% | remaining activity at 3 µM (-80 mV): 95.6% | remaining activity at 3 µM (-100 mV): 95.2% | remaining activity at 3 µM (-120 mV): 95.6% | remaining activity at 3 µM (-140 mV): 94.5% | remaining activity at 10 µM (0 mV): 68% | remaining activity at 10 µM (20 mV): 62.6% | remaining activity at 10 µM (40 mV): 56.1% | remaining activity at 10 µM (60 mV): 50.6% | remaining activity at 10 µM (80 mV): 45.9% | remaining activity at 10 µM (100 mV): 43.5% | remaining activity at 10 µM (120 mV): 41.9% | remaining activity at 10 µM (140 mV): 42.2% | remaining activity at 10 µM (-20 mV): 73.3% | remaining activity at 10 µM (-40 mV): 78.6% | remaining activity at 10 µM (-60 mV): 82.2% | remaining activity at 10 µM (-80 mV): 84.9% | remaining activity at 10 µM (-100 mV): 86.6% | remaining activity at 10 µM (-120 mV): 87% | remaining activity at 10 µM (-140 mV): 87.7% | remaining activity at 30 µM (0 mV): 40.9% | remaining activity at 30 µM (20 mV): 35.2% | remaining activity at 30 µM (40 mV): 30.5% | remaining activity at 30 µM (60 mV): 26.5% | remaining activity at 30 µM (80 mV): 24% | remaining activity at 30 µM (100 mV): 22.5% | remaining activity at 30 µM (120 mV): 22.7% | remaining activity at 30 µM (140 mV): 23.4% | remaining activity at 30 µM (-20 mV): 46.5% | remaining activity at 30 µM (-40 mV): 52.4% | remaining activity at 30 µM (-60 mV): 58.4% | remaining activity at 30 µM (-80 mV): 63.9% | remaining activity at 30 µM (-100 mV): 68.3% | remaining activity at 30 µM (-120 mV): 71.3% | remaining activity at 30 µM (-140 mV): 72.9% | remaining activity at 100 µM (0 mV): 16.5% | remaining activity at 100 µM (20 mV): 13.8% | remaining activity at 100 µM (40 mV): 11.5% | remaining activity at 100 µM (60 mV): 10.1% | remaining activity at 100 µM (80 mV): 9.26% | remaining activity at 100 µM (100 mV): 9.4% | remaining activity at 100 µM (120 mV): 9.52% | remaining activity at 100 µM (140 mV): 9.88% | remaining activity at 100 µM (-20 mV): 19.3% | remaining activity at 100 µM (-40 mV): 23.1% | remaining activity at 100 µM (-60 mV): 28.5% | remaining activity at 100 µM (-80 mV): 33.3% | remaining activity at 100 µM (-100 mV): 37.9% | remaining activity at 100 µM (-120 mV): 41.7% | remaining activity at 100 µM (-140 mV): 44.8% | IC50 (20 mV, 2 µM Ca2+): 16.4 µM | IC50 (40 mV, 2 µM Ca2+): 12.8 µM | IC50 (60 mV, 2 µM Ca2+): 10.4 µM | log-fold IC50 (change of mutant vs WT) (80 mV): 0.5163 | IC50 (80 mV, 2 µM Ca2+): 8.67 µM | IC50 (100 mV, 2 µM Ca2+): 7.86 µM | IC50 (120 mV, 2 µM Ca2+): 7.49 µM | IC50 (140 mV, 2 µM Ca2+): 7.71 µM | IC50 (-20 mV, 2 µM Ca2+): 26.3 µM | IC50 (-40 mV, 2 µM Ca2+): 33.3 µM | IC50 (-60 mV, 2 µM Ca2+): 42.3 µM | IC50 (-80 mV, 2 µM Ca2+): 52.4 µM | IC50 (-100 mV, 2 µM Ca2+): 62.9 µM | IC50 (-120 mV, 2 µM Ca2+): 72.1 µM | IC50 (-140 mV, 2 µM Ca2+): 79.5 µM | IC50 (V511A, V 0 mV): 20.8 µM | IC50 (V511A, V 20 mV): 16.4 µM | IC50 (V511A, V 40 mV): 12.8 µM | IC50 (V511A, V 60 mV): 10.4 µM | IC50 (V511A, V 80 mV): 8.67 µM | IC50 (V511A, V 100 mV): 7.86 µM | IC50 (V511A, V 120 mV): 7.49 µM | IC50 (V511A, V 140 mV): 7.71 µM | IC50 (V511A, V -20 mV): 26.3 µM | IC50 (V511A, V -40 mV): 33.3 µM | IC50 (V511A, V -60 mV): 42.3 µM | IC50 (V511A, V -80 mV): 52.4 µM | IC50 (V511A, V -100 mV): 62.9 µM | IC50 (V511A, V -120 mV): 72.1 µM | IC50 (V511A, V -140 mV): 79.5 µM
